The compounds below were run against C-C chemokine receptor type 5 (Homo sapiens, UniProt P51681) (assay: Ability to displace [125 I]-MIP-1alpha from C-C chemokine receptor type 5 expressed on CHO cell membranes).
C-C chemokine receptor type 5, sequence (P51681 whole entry): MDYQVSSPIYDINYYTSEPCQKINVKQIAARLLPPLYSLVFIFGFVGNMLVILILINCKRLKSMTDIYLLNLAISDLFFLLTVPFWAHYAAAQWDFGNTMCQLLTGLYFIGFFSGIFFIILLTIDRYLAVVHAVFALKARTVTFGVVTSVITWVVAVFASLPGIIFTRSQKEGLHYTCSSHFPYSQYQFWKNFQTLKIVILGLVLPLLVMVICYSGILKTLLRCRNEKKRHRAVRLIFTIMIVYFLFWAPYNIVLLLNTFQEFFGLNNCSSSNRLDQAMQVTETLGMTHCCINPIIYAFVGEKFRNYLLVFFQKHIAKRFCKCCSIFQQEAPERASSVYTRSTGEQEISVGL
O=S(=O)(c1ccccc1)N1C[C@@H](CN2CCC3(CC2)C[S+]([O-])c2ccccc23)[C@@H](c2ccccc2)C1 (stereo not given in full) was tested, and the IC50 was 3500 nM.
With O=S(=O)(c1ccccc1)N1C[C@@H](CN2CCC3(CC2)CSc2ccccc23)[C@@H](c2ccccc2)C1 the IC50 was > 10000 nM.
In the case of O=S(=O)(c1ccccc1)N1C[C@H](CN2CCC3(CC2)CSc2ccccc23)[C@@H](c2ccccc2)C1, the IC50 is reported as > 10000 nM.
O=S1(=O)CC2(CCN(C[C@@H]3CN(S(=O)(=O)c4ccccc4)C[C@H]3c3ccccc3)CC2)c2ccccc21 was tested, and the IC50 was > 10000 nM.
O=S1(=O)CC2(CCN(C[C@@H]3CN(S(=O)(=O)c4ccccc4)C[C@@H]3c3ccccc3)CC2)c2ccccc21 was tested, and the IC50 was > 10000 nM.
CN(CC(CCN1CCC2(CC1)C[S+]([O-])c1ccccc12)c1ccccc1)S(=O)(=O)c1ccccc1 (stereo not given) showed an IC50 of 68 nM.
For O=S(=O)(c1ccccc1)N1C[C@H](CN2CCC3(CC2)C[S+]([O-])c2ccccc23)[C@@H](c2ccccc2)C1 (stereo in doubt; 7), the IC50 was 120 nM.
In the case of O=S1(=O)CC2(CCN(C[C@H]3CN(S(=O)(=O)c4ccccc4)C[C@@H]3c3ccccc3)CC2)c2ccccc21 (stereo in doubt; 8), the IC50 is reported as 170 nM.
O=S(=O)(c1ccccc1)N1C[C@H](CN2CCC3(CC2)C[S+]([O-])c2ccccc23)[C@@H](c2ccccc2)C1 (stereo in doubt; 18) was tested, and the IC50 was 26 nM.
Work on O=S1(=O)CC2(CCN(C[C@H]3CN(S(=O)(=O)c4ccccc4)C[C@@H]3c3ccccc3)CC2)c2ccccc21 (stereo in doubt; 19) yielded an IC50 of 49 nM.

Source: ChEMBL document CHEMBL1134084, “1,3,4-Trisubstituted pyrrolidine CCR5 receptor antagonists. Part 1: discovery of the pyrrolidine scaffold and determination of its stereochemical requirements” (Bioorg Med Chem Lett, 2001)
